The text below walks through data of ChEMBL document CHEMBL4811256, “Synthesis and evaluation of multi-target-directed ligands with BACE-1 inhibitory and Nrf2 agonist activities as potential agents against Alzheimer's disease” (Eur J Med Chem, 2021).

The source made the active and inactive calls. No cut-off for these calls is given here.

One data set has as its target Beta-secretase 1 (Homo sapiens, UniProt P56817). Kind of data set: Inhibition of BACE-1 (unknown origin) using Mca-Ser-Glu-Val-Asn-Leu-Asp-Ala-Glu-Phe-Lys-Dnp-OH as substrate preincubated for 30 mins followed by substrate addition and measured after 1 hr by FRET assay.
Data set [1] in a line: Glutathione peroxidase-like activity in pH 7.5 potassium phosphate buffer assessed as catalytic reduction of H2O2 by measuring initial velocity at 25 degreeC using GSH in presence of NADPH by UV absorbance analysis (reference value: 30.41+/- 2.06 microM/min). Format: functional.
For data set [2], the system named is PC-12. Description: Cytotoxicity against rat PC-12 cells at 25 uM incubated for 24 hrs by MTT assay. It counts as cell-based. The settings on record: pc-12, 24 h. On the technique in general: Tetrazolium assays rely on reduction of a dye to a coloured formazan, in cell work by metabolically active cells.
Data set [3] relates to PC-12. Description: Neuroprotective activity against H2O2-induced cell damage in rat PC-12 cells assessed as decrease in cell death at 10 uM pretreated for 12 hrs followed by H2O2 challenge by MTT assay. Format: functional, cell-based.
A further data set can be described thus: in vitro. To be noted: PAMPA. (In general: In PAMPA a lipid-coated filter parts donor from acceptor wells.)
The subject of a further data set is HEK293. Kind of data set: Inhibition of amyloid beta(1 to 40) secretion in human HEK293T cells transfected with human APP harboring Swedish double mutant K595N/M596L at 1 uM measured after 24 hrs by ELISA. Format: functional, cell-based. A general note: An ELISA detects its analyte on a solid surface through an enzyme-linked reagent.
Data set [4] deals with PC-12. Description: Protection against H2O2-induced ROS accumulation in rat PC-12 cells assessed as intracellular ROS level by measuring mean fluorescence intensity pretreated for 12 hrs followed by H2O2 challenge by DCFH-DA staining based flow cytometry. Format: functional, cell-based. To be noted: dose 2.5-10 µM.
Data set [5] relates to PC-12. Kind of data set: Cytoprotective activity against H2O2- induced cell death in rat PC-12 cells assessed as increase in viable cells pretreated for 12 hrs followed by H2O2 challenge by MTT assay. It counts as functional, cell-based. The settings on record: dose 2.5-10 µM.
Data set [6] concerns PC-12. Kind of data set: Protection against 6-OHDA-induced ROS accumulation in rat PC-12 cells assessed as intracellular ROS level by measuring mean fluorescence intensity pretreated for 12 hrs followed by 6-OHDA challenge by DCFH-DA staining based flow cytometry. Format: functional, cell-based. The settings on record: dose 2.5-10 µM.

Sequence of Beta-secretase 1 (P56817 whole entry): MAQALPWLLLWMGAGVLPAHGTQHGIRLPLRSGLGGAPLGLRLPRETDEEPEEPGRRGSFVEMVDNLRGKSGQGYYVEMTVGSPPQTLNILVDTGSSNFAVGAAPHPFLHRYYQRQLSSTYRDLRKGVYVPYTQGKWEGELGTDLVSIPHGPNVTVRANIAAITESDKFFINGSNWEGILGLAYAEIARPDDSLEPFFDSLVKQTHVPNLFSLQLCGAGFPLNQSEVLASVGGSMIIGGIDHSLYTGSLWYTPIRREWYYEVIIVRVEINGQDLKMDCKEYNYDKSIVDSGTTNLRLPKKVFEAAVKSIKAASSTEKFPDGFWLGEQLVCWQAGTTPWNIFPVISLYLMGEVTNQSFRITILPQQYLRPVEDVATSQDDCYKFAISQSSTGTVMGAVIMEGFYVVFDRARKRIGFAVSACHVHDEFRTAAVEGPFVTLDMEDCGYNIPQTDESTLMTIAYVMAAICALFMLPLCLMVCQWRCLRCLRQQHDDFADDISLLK

One may read the IC50 as the midpoint of a concentration-inhibition curve. Turning to `CN1C(N)=N[C@](C)(c2cc(-n3[se]c4ccc(C(F)(F)F)cc4c3=O)ccc2F)CS1(=O)=O`, 1.6 µM corresponded to half-maximal inhibition at Beta-secretase 1 (IC50). For the same molecule, the V0 in data set [1] was 185 µM/min. In the data set on PC-12 [2], the Activity entry is listed as “Non-Toxic”. In addition, in the data set on PC-12 [3], the outcome was Active.
At Beta-secretase 1, `CN1C(N)=N[C@](C)(c2cc(-n3[se]c4ccc(F)cc4c3=O)ccc2F)CS1(=O)=O` displayed an IC50 of 1.95 µM. Further, the V0 in data set [1] stood at 197 µM/min. Further, in the data set on PC-12 [2], the Activity entry is on record as “Non-Toxic”. For the same molecule, the outcome in the data set on PC-12 [3] was Active.
As to `Cc1ccc2[se]n(-c3ccc(F)c([C@]4(C)CS(=O)(=O)N(C)C(N)=N4)c3)c(=O)c2c1`, the V0 in data set [1] turned out to be 146 µM/min.
On the same count and under the same terms, next, `Cc1cccc2c(=O)n(-c3ccc(F)c([C@]4(C)CS(=O)(=O)N(C)C(N)=N4)c3)[se]c12`: 217 µM/min.
The Papp is the rate of passage across a membrane or cell layer, normalised by area and donor concentration. A low value points to poor permeation. Regarding `C[C@]12CC[C@@H]3c4ccc(O)cc4CC[C@H]3[C@@H]1CC[C@@H]2O` [ESTRADIOL], the Papp at 16 h in the data set “in vitro” is 12.2 ×10⁻⁶ cm/s.
For `CN1C(N)=N[C@](C)(c2cc(-n3[se]c4c(C(F)(F)F)cccc4c3=O)ccc2F)CS1(=O)=O`, the V0 in data set [1] came out at 180 µM/min.
On Beta-secretase 1, `CN1C(N)=N[C@](C)(c2cc(-n3[se]c4cc(F)c(F)cc4c3=O)ccc2F)CS1(=O)=O` showed an IC50 of 1.12 µM. In data set [1], the V0 amounted to 163 µM/min. Also, the Activity entry in the data set on PC-12 [2] was “Non-Toxic”. Also, the result with PC-12 [3] was Active.
For `O=c1c2ccccc2[se]n1-c1ccccc1`, the inhibition result with HEK293 is “inactive”. Besides, the Activity entry in the data set on PC-12 [4], in the data set on PC-12 [5] and in the data set on PC-12 [6] was “Dose-Dependent Effect” each time. The V0 in data set [1] was determined as 153 µM/min. Besides, in the data set on PC-12 [3], the result was Active.
On to `COc1ccc2c(=O)n(-c3ccc(F)c([C@]4(C)CS(=O)(=O)N(C)C(N)=N4)c3)[se]c2c1`, for which, on Beta-secretase 1, the midpoint of inhibition, the IC50, lay at 1.55 µM. For the same molecule, the V0 in data set [1] is 114 µM/min.
In the data set “in vitro”, `CCn1cc(C(=O)O)c(=O)c2cc(F)c(N3CCNC(C)C3)c(F)c21` (configuration not stated) [LOMEFLOXACIN] yielded a Papp at 16 h of 2.59 ×10⁻⁶ cm/s.
With `COc1ccc2[se]n(-c3ccc(F)c([C@]4(C)CS(=O)(=O)N(C)C(N)=N4)c3)c(=O)c2c1`, the IC50 on Beta-secretase 1 came to 1.49 µM. Further, the V0 in data set [1] stood at 161 µM/min. The Activity result in the data set on PC-12 [2] is given as “Non-Toxic”. Moreover, in the data set on PC-12 [3], the outcome was Active.
The like results for `CN1C(N)=N[C@](C)(c2cc(-n3[se]c4ccccc4c3=O)ccc2F)CS1(=O)=O` were, in that order, 1.92 µM, 156 µM/min, “Non-Toxic” and “Active”.
Consider `Clc1cccc(Cl)c1N=C1NCCN1` [CLONIDINE], for which the Papp at 16 h in the data set “in vitro” is 7.36 ×10⁻⁶ cm/s.
Same read-out and setting: as for `CN1C(C(=O)Nc2ccccn2)=C(O)c2ccccc2S1(=O)=O` [PIROXICAM], the figure is 3.07 ×10⁻⁶ cm/s.
With `Cc1ccc2c(=O)n(-c3ccc(F)c([C@]4(C)CS(=O)(=O)N(C)C(N)=N4)c3)[se]c2c1`, the V0 in data set [1] was found to be 130 µM/min.
On the same count and under the same terms, next, `CN1C(N)=N[C@](C)(c2cc(-n3[se]c4cc(C(F)(F)F)ccc4c3=O)ccc2F)CS1(=O)=O`: 145 µM/min.
The same measure, in the same setting: as for `CN1C(N)=N[C@](C)(c2cc(-n3[se]c4c(F)cccc4c3=O)ccc2F)CS1(=O)=O`, the figure is 242 µM/min.
For `CN1C(N)=N[C@](C)(c2cc(NC(=O)c3ccc(F)cn3)ccc2F)CS1(=O)=O`, the outcome in the data set on PC-12 [4] and in the data set with PC-12 [6] was inactive. The V0 in data set [1] was determined as 29.4 µM/min. For the same molecule, the result with PC-12 [3] was Active.
